Earlier results in US9782362B2, “Uses of compositions containing a roasted extract and xanthohumol” (TA-XAN AG, priority 2012, dated 2017).
Read-outs that look alike come from different tables or passages of the source.

Legend:
[1] = system: Human breast tumor cells (MXF7 cells); conditions: daily dose of 4-6 mg/kg in the drinking water; not validated statistically at the 95% level
[2] = system: Diacylglycerol acetyltransferase (DGAT); conditions: in vitro
[3] = system: Cells in culture or rat liver; conditions: depending on doses ranging between 0.01 to 10 μM
[4] = system: Human breast tumor cells (MX-1 cells); conditions: daily subcutaneous 1000 mg/kg
[5] = mice
[6] = system: bone-resorbing cells (osteoclasts); conditions: in vitro
apoptosis = conditions: 4-6 mg/kg per day for 60 days in the drinking water
Estrogen = conditions: oral three×100 mg/kg over three days
[7] = 4 weeks, female C3H-mice
bacterial culture = conditions: depending on doses ranging between 0.01 to 10 μM
[8] = system: human Kaposi's sarcoma (KS-IMM) cells; conditions: approx. 1.2 mg/kg for 23 days
[9] = direct chemical interaction
inflammation = conditions: oral 4-6 mg/kg per day for 60 days in drinking water
[10] = 100 mg/kg/day in drinking water for four weeks, then mated
[11] = rat
angiogenesis = conditions: approx. 1 mg/kg per day three days per os; 4-6 mg/kg per day 60 days drinking water; or 1000 mg/kg subcutaneously
[12] = up to 100 mg/kg/day per os, 4 weeks

For `COc1cc(O)c(CC=C(C)C)c(O)c1C(=O)/C=C/c1ccc(O)cc1` [xanthohumol], the “growth of the tumor inhibited” value [1] is given as 35%, the DGAT inhibition [2] is given as “inhibition of this enzyme” and the “inhibition of DNA damage” value [3] is given as “up to 100%”. For the same compound, the “growth of the tumor inhibited” value ([4]; in one week) was 46%, the “growth of the tumor inhibited” value ([4]; in two weeks) was 83% and the plasma glucose level [5] was “reduction”. For the same compound, the triglycerides [5] was “reduction”, the “inhibition of the resorption of bone” value ([6]; 1 μM) was 35% and the “inhibition of the resorption of bone” value ([6]; 10 μM) was 94%. The induction of apoptosis (apoptosis) was “could be detected”, the toxic effects (daily for 4 weeks: 100 mg/kg drinking water, 500 mg/kg in feed, 1000 mg/kg pharyngeal tube) was “no toxic effects whatsoever could be determined” and the “weight of the liver” value (high-dose groups (500 mg/kg/day and 1000 mg/kg/day), due to breakdown of glycogen) was “reduction in the weight of the liver”. For the same compound, the anti-estrogen action (Estrogen) was “possible to detect anti-estrogen action”, the “development of weight, appearance of organs, haematologically clinical parameters, liver enzyme values, glucose metabolism” value ([7]; approximately 28 mg/kg/day in drinking water) was “uninfluenced” and the impact on health ([7]; drinking water 5×10^−4M ad libitum, approximately 28 mg/kg/day) was “no unfavorable impact”. For the same compound, the “inhibition of mutagenic damage” value (bacterial culture) was “up to 100%”, the “growth of the tumor inhibited” value [8] was 68% and the “interception of DPPH radical” value [9] was “not able to intercept”. The effect on inflammation (inflammation) was “inhibitive effect on inflammation was also established in vivo”, the “influence on fertility or lactation” value [10] was “Neither the pre-treatment of the female animals nor of the males had any influence” and the “absorption following oral application” value [11] was “poorly absorbed”. For the same compound, the “state in the excrement” value ([11]; oral) was “largely unchanged”, the anti-angiogenetic action (angiogenesis) was “anti-angiogenetic action” and the toxicity [12] was “no indication of toxicity”.
